# Source: the supplement of paper PMC10307832
# Experiments:
# Assay in all cases: relative viability (nuclei count vs DMSO), 5 days (fraction); higher = more cells survive
# NCI-H727 = tested on: NCI-H727
# Method in brief: (§1)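 Relative viability was taken as the ratio of nuclei in treated wells to nuclei in vehicle wells. Lung cancer cell lines in 1536-well plates received compounds by pin tool one day after seeding, either one drug alone or a fixed anchor-drug dose plus five library-drug doses (not always all listed) in √10 steps. Nuclei were counted on 4× images after 5 days of treatment, and values are medians of duplicate plates.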
# NCI-H1944 = tested on: NCI-H1944
# Method in brief: as §1
# NCI-H3122 = tested on: NCI-H3122
# Method in brief: as §1
# COR-L 105 = tested on: COR-L 105
# Method in brief: as §1
# PC-14 = tested on: PC-14
# Method in brief: as §1
# NCI-H661 = tested on: NCI-H661
# Method in brief: as §1
# NCI-H358 = tested on: NCI-H358
# Method in brief: as §1
# SK-LU-1 = tested on: SK-LU-1
# Method in brief: as §1
# ChaGo-K-1 = tested on: ChaGo-K-1
# Method in brief: as §1
# HCC-827 = tested on: HCC-827
# Method in brief: as §1
# LCLC-103H = tested on: LCLC-103H
# Method in brief: as §1
# HCC-366 = tested on: HCC-366
# Method in brief: as §1
# HCC-44 = tested on: HCC-44
# Method in brief: as §1
# NCI-H2342 = tested on: NCI-H2342
# Method in brief: as §1
# HCC-78 = tested on: HCC-78
# Method in brief: as §1
# UMC-11 = tested on: UMC-11
# Method in brief: as §1
# EPLC-272H = tested on: EPLC-272H
# Method in brief: as §1
# HCC-15 = tested on: HCC-15
# Method in brief: as §1
# NCI-H1792 = tested on: NCI-H1792
# Method in brief: as §1
# NCI-H1437 = tested on: NCI-H1437
# Method in brief: as §1
# SK-MES-1 = tested on: SK-MES-1
# Method in brief: as §1
# NCI-H2085 = tested on: NCI-H2085
# Method in brief: as §1
smiles,measurement,setting,value
COCC1(CO)C(=O)C2CCN1CC2 (stereo unspecified) [PRIMA-1MET] + CC(=O)Nc1cccc(-n2c(=O)n(C3CC3)c(=O)c3c(Nc4ccc(I)cc4F)n(C)c(=O)c(C)c32)c1 [Trametinib] (partner 0.02 µM),relative viability,NCI-H727; first compound 0.2 µM,0.423
same,relative viability,NCI-H727; first compound 0.6325 µM,0.322
same,relative viability,NCI-H727; first compound 6.325 µM,0.413
same,relative viability,NCI-H727; first compound 20 µM,0.377
same,relative viability,NCI-H1944; first compound 0.2 µM,0.366
same,relative viability,NCI-H1944; first compound 0.6325 µM,0.349
same,relative viability,NCI-H1944; first compound 2 µM,0.407
same,relative viability,NCI-H1944; first compound 6.325 µM,0.387
same,relative viability,NCI-H1944; first compound 20 µM,0.425
same,relative viability,NCI-H3122; first compound 0.2 µM,0.148
same,relative viability,NCI-H3122; first compound 0.6325 µM,0.237
same,relative viability,NCI-H3122; first compound 2 µM,0.24
same,relative viability,NCI-H3122; first compound 6.325 µM,0.17
same,relative viability,NCI-H3122; first compound 20 µM,0.191
same,relative viability,COR-L 105; first compound 0.2 µM,0.464
same,relative viability,COR-L 105; first compound 0.6325 µM,0.421
same,relative viability,COR-L 105; first compound 2 µM,0.378
same,relative viability,COR-L 105; first compound 6.325 µM,0.438
same,relative viability,COR-L 105; first compound 20 µM,0.108
same,relative viability,PC-14; first compound 0.2 µM,0.921
same,relative viability,PC-14; first compound 0.6325 µM,0.618
same,relative viability,PC-14; first compound 2 µM,0.97
same,relative viability,PC-14; first compound 6.325 µM,0.693
same,relative viability,PC-14; first compound 20 µM,0.615
same,relative viability,NCI-H661; first compound 0.2 µM,0.506
same,relative viability,NCI-H661; first compound 0.6325 µM,0.492
same,relative viability,NCI-H661; first compound 2 µM,0.547
same,relative viability,NCI-H661; first compound 6.325 µM,0.552
same,relative viability,NCI-H661; first compound 20 µM,0.503
same,relative viability,NCI-H358; first compound 0.2 µM,0.137
same,relative viability,NCI-H358; first compound 0.6325 µM,0.134
same,relative viability,NCI-H358; first compound 2 µM,0.108
same,relative viability,NCI-H358; first compound 6.325 µM,0.108
same,relative viability,NCI-H358; first compound 20 µM,0.0807
same,relative viability,SK-LU-1; first compound 0.2 µM,0.308
same,relative viability,SK-LU-1; first compound 0.6325 µM,0.488
same,relative viability,SK-LU-1; first compound 2 µM,0.35
same,relative viability,SK-LU-1; first compound 6.325 µM,0.382
same,relative viability,SK-LU-1; first compound 20 µM,0.528
same,relative viability,ChaGo-K-1; first compound 0.2 µM,0.996
same,relative viability,ChaGo-K-1; first compound 0.6325 µM,0.735
same,relative viability,ChaGo-K-1; first compound 2 µM,0.849
same,relative viability,ChaGo-K-1; first compound 6.325 µM,0.891
same,relative viability,ChaGo-K-1; first compound 20 µM,0.857
same,relative viability,HCC-827; first compound 0.2 µM,0.443
same,relative viability,HCC-827; first compound 0.6325 µM,0.523
same,relative viability,HCC-827; first compound 2 µM,0.474
same,relative viability,HCC-827; first compound 6.325 µM,0.461
same,relative viability,HCC-827; first compound 20 µM,0.481
same,relative viability,LCLC-103H; first compound 0.2 µM,0.675
same,relative viability,LCLC-103H; first compound 0.6325 µM,0.619
same,relative viability,LCLC-103H; first compound 2 µM,0.604
same,relative viability,LCLC-103H; first compound 6.325 µM,0.655
same,relative viability,LCLC-103H; first compound 20 µM,0.709
same,relative viability,HCC-366; first compound 0.2 µM,0.288
same,relative viability,HCC-366; first compound 0.6325 µM,0.289
same,relative viability,HCC-366; first compound 2 µM,0.263
same,relative viability,HCC-366; first compound 6.325 µM,0.431
same,relative viability,HCC-366; first compound 20 µM,0.0205
same,relative viability,HCC-44; first compound 0.2 µM,1.01
same,relative viability,HCC-44; first compound 0.6325 µM,0.951
same,relative viability,HCC-44; first compound 2 µM,1.12
same,relative viability,HCC-44; first compound 6.325 µM,1.07
same,relative viability,HCC-44; first compound 20 µM,1.03
same,relative viability,NCI-H2342; first compound 0.2 µM,0.77
same,relative viability,NCI-H2342; first compound 0.6325 µM,1.06
same,relative viability,NCI-H2342; first compound 6.325 µM,0.755
same,relative viability,NCI-H2342; first compound 20 µM,0.67
same,relative viability,HCC-78; first compound 0.2 µM,0.676
same,relative viability,HCC-78; first compound 0.6325 µM,0.708
same,relative viability,HCC-78; first compound 2 µM,0.478
same,relative viability,HCC-78; first compound 6.325 µM,0.596
same,relative viability,HCC-78; first compound 20 µM,0.331
same,relative viability,UMC-11; first compound 0.2 µM,0.705
same,relative viability,UMC-11; first compound 0.6325 µM,0.569
same,relative viability,UMC-11; first compound 2 µM,0.513
same,relative viability,UMC-11; first compound 6.325 µM,0.817
same,relative viability,UMC-11; first compound 20 µM,0.749
same,relative viability,EPLC-272H; first compound 0.2 µM,0.281
same,relative viability,EPLC-272H; first compound 0.6325 µM,0.303
same,relative viability,EPLC-272H; first compound 2 µM,0.272
same,relative viability,EPLC-272H; first compound 6.325 µM,0.29
same,relative viability,EPLC-272H; first compound 20 µM,0.216
same,relative viability,HCC-15; first compound 0.2 µM,0.37
same,relative viability,HCC-15; first compound 0.6325 µM,0.346
same,relative viability,HCC-15; first compound 2 µM,0.37
same,relative viability,HCC-15; first compound 6.325 µM,0.328
same,relative viability,HCC-15; first compound 20 µM,0.31
same,relative viability,NCI-H1792; first compound 0.2 µM,0.413
same,relative viability,NCI-H1792; first compound 6.325 µM,0.434
same,relative viability,NCI-H1792; first compound 20 µM,0.54
same,relative viability,NCI-H1437; first compound 0.2 µM,0.631
same,relative viability,NCI-H1437; first compound 0.6325 µM,0.525
same,relative viability,NCI-H1437; first compound 2 µM,0.449
same,relative viability,NCI-H1437; first compound 6.325 µM,0.546
same,relative viability,NCI-H1437; first compound 20 µM,0.479
same,relative viability,SK-MES-1; first compound 0.2 µM,0.609
same,relative viability,SK-MES-1; first compound 0.6325 µM,0.538
same,relative viability,SK-MES-1; first compound 2 µM,0.549
same,relative viability,SK-MES-1; first compound 6.325 µM,0.624
same,relative viability,SK-MES-1; first compound 20 µM,0.592
same,relative viability,NCI-H2085; first compound 0.2 µM,0.618
same,relative viability,NCI-H2085; first compound 0.6325 µM,0.61
same,relative viability,NCI-H2085; first compound 2 µM,0.508
same,relative viability,NCI-H2085; first compound 6.325 µM,0.427
same,relative viability,NCI-H2085; first compound 20 µM,0.141
